Data published in patent publication US8501720B2, “Method for treatment of dysmenorrhea” (Bayer Pharma AG, priority 2004, dated 2013).

Assays:
[1] = in vivo; cited from earlier work
[2] = pharmacokinetics of drospirenone; type: in vivo; settings: i.e. after at most a week
Excerpt: For example, in the present study, there was, a significant reduction of edema and breast tenderness among long-cycle users in comparison with the women on the conventional 21-day monthly cycle. Thus, in the event of these symptoms being present, a regimen of 42-126 days could be recommended.

[3] = Hershberger test; cited from earlier work

time to steady state [2]: about four
Structure (SMILES): C[C@]12CCC(=O)C=C1[C@@H]1C[C@@H]1[C@H]1[C@@H]3[C@@H]4C[C@@H]4[C@@]4(CCC(=O)O4)[C@@]3(C)CC[C@@H]12 [drospirenone]
half-life [1]: about 27 h | antiandrogenic properties compared with chlormadinone acetate [3]: exceed those of chlormadinone acetate | antiandrogenic properties relative to cyproterone acetate [3]: approximately one-third
